# Test results: a melting point compilation (Tetko et al.; mined from patent text by program, amines drawn as free bases though some values may be those of a salt)
row,melting point [°C],SMILES
1,277 to 280,COc1ccc2cc3c(c(-c4ccc(OC(F)(F)F)cc4)c2c1)CNC3=O
2,130,O=C(Cn1cncn1)c1cccc2ccccc12
3,56 to 57,Clc1cncc(-n2ccc3ccccc32)c1
4,84 to 87,COCCOc1cc(-n2c(=O)cc(C(F)(F)F)n(C)c2=O)c(F)cc1Cl
5,134 to 138,Cc1cccc(-c2nc(-c3ccc(S(C)(=O)=O)cc3)sc2-c2ccnc(C)c2)c1
6,169 to 170,"O=c1ccn(CCO)c(C(O)c2ccccc2)c1OCc1ccccc1 (single isomer, unassigned; (+))"
7,78 to 80,COC(=O)C(=CN(C)C)C(=O)C=Cc1ccc(Cl)cc1
8,60 to 64,CCCCCCCCCCCCC(C)N(c1ccccc1)P(=O)(O)O (stereo not given)
9,271 to 275,COc1cc2c(cc1/C=C/CCO)[nH]c1cc(-c3ccccc3Cl)c3c(c12)C(=O)NC3=O
10,189 to 192,COCCCc1cc(F)c2ncc(C(=O)NCc3ccc(Cl)cc3)c(O)c2c1
11,95 to 98,O=[N+]([O-])c1ccc(Cl)nc1Nc1ccccc1
12,132 to 134,CC(C)(C)O[C@H]1C[C@H]2CN(C3=Nc4cc(Cl)ccc4Sc4ccccc43)CCN2C1
13,225 to 226,CCc1nc2ccc(S(C)(=O)=O)nn2c1S(N)(=O)=O
14,105 to 107,CC1CCCC(C)N1c1cc(F)cc(C(=O)Nc2ccc(OCCN3CCOCC3)c3ccccc23)c1 (stereo not given)
15,145 to 147,COc1cc(OC)nc(NC(=O)NS(=O)(=O)Nn2cccc2C(=O)C(F)(F)F)n1
16,320,CCCCC(C=C1c2cc3c(cc2-c2sc(-c4cc5sccc5s4)cc21)C(=CC(CC)CCCC)c1cc(-c2cc4sccc4s2)sc1-3)CC (stereo not given)
17,49 to 51,NN1CCC(Cc2ccc(Cl)cc2)CC1
18,61 to 62,C=CCc1cccc2nc(Cc3ccccc3Cl)oc12
19,122 to 124,O=C(CCC(=O)N1CCC(c2ccc(Cl)cc2)CC1)c1ccc2c(c1)CNCCC2
20,128,CCN(CC)C(=O)CCc1c[nH]c2ccc(Br)cc12
21,201 to 202,Cc1ccc(C(=O)Nc2ccc(CCc3ccc(O)c(O)c3)cc2)c(O)c1
22,144 to 146,O=C1NC(=O)C(Cc2ccc3cc(OCc4ccccc4)ccc3n2)S1 (stereo not given)
23,54 to 55,COc1ccc(CCNC(=O)[C@@H](O)CO)cc1OC1CCCC1
24,88 to 92,COc1cccc(C(O)(c2nccs2)C(F)(F)F)c1 (stereo not given)

row,melting point [°C],SMILES
1,160 to 161,O=C(O)[C@@H]1CCCN1C(=O)C(Sc1nc2cc(Cl)ccc2s1)c1ccccc1 (stereo not given in full)
2,140,Clc1ccc(-c2cc(OCCCN3CCCCC3)[nH]n2)cc1
3,63.8 to 65.2,CCCCCCCCc1c(CCCCCCCC)c2cc(Br)sc2c2sc(Br)cc12
4,125 to 126,COC(=O)c1cccc(-c2nc(COc3ccc(CCl)cc3OC)c(C)o2)c1
5,75 to 78,CC(C#N)(COc1cc(C#N)ccc1C(F)(F)F)NC(=O)c1ccc(OC(F)(F)F)cc1 (stereo not given)
6,178 to 180,O=c1c(CCCc2ccncc2)cc2cccnc2n1-c1cccnc1
7,168 to 171,CC(=O)OCC1CCn2c(c(C3=C(c4ccccc4Cl)C(=O)OC3=O)c3ccccc32)C1 (stereo not given)
8,207,Cc1nc2nc(-c3ccc(C4(N)CCC4)cc3)c(-c3ccccc3)cn2n1
9,215 to 217,COc1cc(C)nc(NC(=O)NS(=O)(=O)c2c(C)nn(C)c2S(=O)(=O)N(C)C)n1
10,158 to 160,Nc1cccc(C(CC2CCCC2)C(=O)Nc2nccs2)c1 (stereo not given)
11,28,CCC(C)(C)c1nc(C(C)C)[nH]c1C(C)(C)CC
12,150 to 152,O=C(CN1CCNCC1C(=O)CCCCCNO)Nc1nc2ccccc2s1 (stereo not given)
13,140,Cn1c([N+](=O)[O-])cnc1COc1ccc(SC#N)cc1
14,178 to 181,CCCCOCCOc1ccc(-c2ccc3c(c2)C=C(C(=O)Nc2ccc(C(O)c4ccccn4)c(OCC(F)(F)F)c2)CCN3C(=O)C(F)(F)F)cc1 (stereo not given)
15,88 to 92,CCOC(=O)C(O)=CC(=O)c1ccc(C)o1
16,157 to 158,COC(=O)Cn1c(C)cc(Cc2ccsc2)c([N+](=O)[O-])c1=O
17,124 to 126,CCCCCCCCCCOc1ccc(C(=O)O)o1
18,151 to 153,O=C1NC(C(=O)NCCO[N+](=O)[O-])C(c2cccc3ccccc23)S1 (stereo not given)
19,176,N#Cc1cc(N)n(-c2c(Cl)cc(C(F)(F)F)cc2Cl)c1
20,176 to 178,C=C(C)C(=O)NC1(C(=O)O)CCCCC1
21,116 to 117,CC(Br)C(=O)c1cc(C(N)=O)cs1 (stereo not given)
22,61.5 to 63,O=COCCCCCC(=O)NC[C@@H]1CN2C(=O)C[C@H]2O1 (racemic)
23,159 to 165,O=S1(=O)NCNc2ccc(F)cc21
24,134 to 136,CCc1cc(C(=O)c2ccccc2Cl)c(-n2c(C)nnc2Cc2cccc(OC(N)=O)c2Cl)s1

row,melting point [°C],SMILES
1,165 to 167,CCn1ccc(Nc2cc(Br)cn(C)c2=O)n1
2,148,COC(=O)C(c1ccccc1)(c1ncc[nH]1)c1ccccc1C (stereo not given)
3,150 to 151,Cc1ccccc1COc1cccnc1NC(=S)Nc1ccccc1
4,170 to 172,CCCc1nn(CC)c2c(=O)[nH]c(-c3cc(S(=O)(=O)Cl)ccc3OCC)nc12
5,65 to 66,CC(C)c1nc(CN(C(=O)N[C@H](C(=O)N[C@@H](Cc2ccccc2)C[C@H](O)[C@H](Cc2ccccc2)NC(=O)OCc2cncs2)C(C)C)C2CC2)cs1
6,80 to 82,COC(CN(C)CC1CSC2=C(O1)c1ccccc1C(=O)C2=O)OC (stereo not given)
7,172,Nc1ccccc1C(=O)NCCN1CCC(Nc2nc3ccccc3n2Cc2ccc(F)cc2)CC1
8,88 to 90,C=CCn1cc(F)cnc1=O
9,170 to 171,CCOC(=O)c1cn(-c2ccc(F)cc2F)c2nc(SCC)c(F)cc2c1=O
10,89,CCC(Oc1ccc(C(C)(C)CC)cc1C(C)(C)CC)C(=O)O (stereo not given)
11,117 to 119,CCCCCCCCCCNC(=O)c1ccc(N)cc1
12,232,Cc1cc(-c2ncn3c(C(F)(F)F)cc(-c4ccc(Cl)cc4)nc23)ccn1
13,198 to 199,CNC(=O)c1cc(C)nc(NC(=O)c2cc(Cl)nn2-c2ncccc2Cl)n1
14,184 to 190,CCn1c2ccc(C(C)=O)cc2c2cc(C(C)=O)ccc21
15,125 to 126,O=[N+]([O-])c1cc(Cl)cnc1Oc1ccc(O)cc1
16,54,CCCCCCC[C@H]1CC[C@H](CCc2ccc(-c3ccc(Br)cc3F)cc2)CC1
17,170 to 172,CC(C)Nc1cccc2c1C(=O)c1cccc(NC(C)C)c1C2=O
18,141 to 146,CC(=O)OC1CN=C(C)NC1 (stereo not given)
19,114 to 116,CCCN(CCC)C(=O)C(CCC(=O)N(C)C)NC(=O)C=Cc1ccco1 (stereo not given)
20,213,COc1ccc(C2=C(N)c3cc(OC)ccc3C2=O)cc1
21,205,CS(=O)(=O)c1ccc(-c2cnn(-c3ccc(F)c(Cl)c3)c(=O)c2-c2ccc(Cl)cc2)cc1
22,114 to 116,CCOC(=O)CCC1OC(=O)C(O)=C1c1ccccc1 (stereo not given)
23,170,COc1cccc(Oc2c(NS(=O)(=O)c3ccc(C(C)(C)C)cc3)ncnc2OCCOc2cccnn2)c1
24,140 to 142,O=S1(=O)C=Cc2cc(Br)ccc2O1

row,melting point [°C],SMILES
1,142 to 150,COc1cc(OC)nc(OC(C(=O)O)C(C)(C)C#N)n1 (stereo not given)
2,114 to 115,CC(C)(C)OC(=O)N1CCC(C(=O)c2nc3ccccc3n2Cc2ccc(F)cc2)CC1
3,141 to 143,COc1ccc(-c2nc(CN(C)c3ccccc3)nc3cc(OC)c(OC)cc23)cc1OC
4,83 to 84,CN1CCCC1=Cc1ccc(Br)cc1
5,> 190,CC(C)(C)N(NC(=O)c1cccs1)C(=O)c1ccccc1
6,211 to 212,CN(Cc1cc(C(F)(F)F)cc(C(F)(F)F)c1)C(=O)c1c(-c2ccc(F)cc2)c2cccnc2c(=O)n1C
7,199 to 200,Nc1ncnc2c1c(-c1ccc(Oc3ccccc3)cc1)cn2C1CCC(O)CC1 (stereo not given)
8,301 to 303,Cc1cc2ncc(-c3nnnn3C)c(O)c2cc1C
9,193 to 196,COc1ccc2c(c1)c(CC(=O)O)c(C)n2C(=O)c1c(Cl)cc(Cl)cc1Cl
10,154 to 156,COc1nc(C)cnc1N(C(=O)OCC(C)C)S(=O)(=O)c1cccnc1-c1ccc(C=O)cc1
11,137 to 140,O=C1N(CCCCN2CCN(C3=NS(=O)(=O)c4ccccc43)CC2)CSC12CCCC2
12,189,CN(C(=O)COc1cc(-c2ccccc2)nc2ccccc12)N1CCOCC1
13,124,CCC1SC(=O)N(Cc2ccc(NC(=O)C(F)(F)F)cc2)N=C1c1ccc(OC)c(OC)c1 (stereo not given)
14,77 to 80,CSc1nc(C)cc(-c2ccc(C(F)(F)F)cc2)n1
15,235 to 237,O=C1CCC(N2Cc3c(OCc4ccccn4)cccc3C2=O)C(=O)N1 (stereo not given)
16,193 to 195,COCc1cc(O)c2cccc(OC)c2n1
17,180,C[C@@]1(c2ccccc2)OC(c2ccccc2)=NC[C@H]1OC(=O)Nc1ccccc1 (racemic)
18,254 to 255,CCCCc1nc2cc(Br)cc(C(=O)O)c2n1Cc1ccccc1Cl
19,188 to 190,CCOC(=O)Nc1ccc(-n2ccc(C#N)c2)c(F)c1
20,288 to 290,COc1cc(CC(C#N)=CNc2ccccc2)cc(OC)c1C(N)=O
21,194,Oc1cc(-c2ccc(Cl)cc2F)n[nH]1
22,135 to 136,CCCn1nc2c(N)nc3ccccc3c2c1CCCCO
23,160 to 161,COC(=O)c1cccc(C(=O)c2cc(C(=O)OC)cc(OC)c2OC)c1

row,SMILES,melting point [°C]
1,COc1ccc2c(c1O)C13CCN(C)C(C2)C1CC(C)C(=O)C3 (stereo not given),166 to 167
2,CN(C(=O)Cc1cccc2ccccc12)C1c2ccccc2CCC1N1CCCC1 (stereo not given),125
3,Cc1ccc2c3c(ccc2n1)OCC(CN1CCC2(CC1)C(=O)NCN2c1ccccc1)O3 (stereo not given),199 to 201
4,CCN(CC)CC(O)c1cccc2ccoc12 (stereo not given),116
5,O=C1CCCN1C(=O)c1cccnc1,98 to 100
